The source of these data is patent publication US12077503B2, “Substituted cyclic amides and their use as herbicides” (FMC CORPORATION, priority 2015, dated 2024).

What all share (format): in vivo
For assay [1], the system named is giant foxtail (Setaria faberii). The assay is described as follows: Test A postemergence. The settings on record: Setaria faberi, post-emergence, 240 h. The gist of the method:
(§1)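 Visual injury, scored on a 0–100 scale relative to untreated controls, was recorded about 10 d after application. Treatments were a preemergence soil spray over planted seeds or a postemergence spray on plants at the one- to two-leaf stage, 2 to 10 cm tall, all in loam soil–sand blend in the greenhouse.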

In assay [2] the test system is ryegrass, Italian (Italian ryegrass, Lolium multiflorum). The assay is described as follows: Test A postemergence. The settings on record: Lolium multiflorum, post-emergence, 240 h. The gist of the method: as §1
Assay [3] concerns pigweed (Amaranthus retroflexus). The experiment in a line: Test A postemergence. Particulars: Amaranthus retroflexus, post-emergence, 240 h. The gist of the method: as §1
The test system of assay [4] is barnyardgrass (Echinochloa crus-galli). The experiment in a line: Test A postemergence. The settings on record: Echinochloa crus-galli, post-emergence, 240 h. The gist of the method: as §1
For assay [5], the system named is giant foxtail (Setaria faberii). The experiment in a line: Test A preemergence. Particulars: Setaria faberi, pre-emergence, 240 h, preemergence, 0 to 100 scale where 0 is no effect and 100 is complete control, read-out: Foxtail, Giant plant response rating. The gist of the method: as §1
Assay [6] concerns ryegrass, Italian (Italian ryegrass, Lolium multiflorum). The experiment in a line: Test A preemergence. Particulars: Lolium multiflorum, pre-emergence, 240 h, preemergence, 0 to 100 scale where 0 is no effect and 100 is complete control, read-out: Ryegrass, Italian plant response rating. The gist of the method: as §1
For assay [7], the system named is pigweed (Amaranthus retroflexus). The experiment in a line: Test A preemergence. The settings on record: Amaranthus retroflexus, pre-emergence, 240 h, preemergence, 0 to 100 scale where 0 is no effect and 100 is complete control, read-out: Pigweed plant response rating.
Assay [8] deals with ragweed (common ragweed, Ambrosia elatior). The assay is described as follows: Test A preemergence. The settings on record: Ambrosia artemisiifolia, pre-emergence, 240 h, preemergence, 0 to 100 scale where 0 is no effect and 100 is complete control, read-out: Ragweed plant response rating. The gist of the method:
as §1

Assay [9] has as its system Kochia (Kochia scoparia). The assay is described as follows: Test A preemergence. The settings on record: Bassia scoparia, pre-emergence, 240 h, preemergence, 0 to 100 scale where 0 is no effect and 100 is complete control, read-out: Kochia plant response rating. The gist of the method:
as §1

Assay [10] concerns barnyardgrass (Echinochloa crus-galli). The assay is described as follows: Test A preemergence. The settings on record: Echinochloa crus-galli, pre-emergence, 240 h, preemergence, 0 to 100 scale where 0 is no effect and 100 is complete control, read-out: Barnyardgrass plant response rating. The gist of the method: as §1
The subject of assay [11] is rice (Oryra sativa). The experiment in a line: Test B flooded paddy test. The settings on record: Oryza sativa, 250 g ai/ha, Flood; 0 to 100 scale where 0 is no effect and 100 is complete control; read-out: Rice plant response rating. The gist of the method:
(§2)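 Visual ratings (0 none to 100 complete control) are relative to untreated plants, taken 13–15 d after treatment in a greenhouse. Test material went straight into floodwater standing 3 cm above the soil, kept constant, on plants at the 2-leaf stage.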

The test system of assay [12] is sedge, umbrella (small-flower umbrella sedge, Cyperus difformis). The assay is described as follows: Test B flooded paddy test. The settings on record: Cyperus difformis, 250 g ai/ha, Flood; 0 to 100 scale where 0 is no effect and 100 is complete control; read-out: Sedge, Umbrella plant response rating. The gist of the method:
as §2

The subject of assay [13] is barnyardgrass (Echinochloa crus-galli). The experiment in a line: Test B flooded paddy test. Particulars: Echinochloa crus-galli, 250 g ai/ha, Flood; 0 to 100 scale where 0 is no effect and 100 is complete control; read-out: Barnyardgrass plant response rating. The gist of the method:
as §2

Assay [14] deals with ducksalad (Heteranthera limosa). The assay is described as follows: Test B flooded paddy test. Particulars: Heteranthera limosa, 250 g ai/ha, Flood; 0 to 100 scale where 0 is no effect and 100 is complete control; read-out: Ducksalad plant response rating. The gist of the method:
as §2

[15] abbreviates: 125 g ai/ha, visual injury rating, approximately 10 d.

`CSc1ccccc1NC(=O)[C@H]1C(=O)N(C)C[C@@H]1c1ccc2c(c1)OC(F)(F)O2` [Compound 1251]: the pest or weed control at 125 g/ha in assay [1] (125 g ai/ha, postemergence, visual injury vs untreated controls after approx. 10 d, 0 = no effect, 100 = complete control, read-out: Foxtail, Giant plant response rating (0 to 100 scale)) worked out at 70%; in [2] (125 g ai/ha, postemergence, visual injury vs untreated controls after approx. 10 d, 0 = no effect, 100 = complete control, read-out: Ryegrass, Italian plant response rating (0 to 100 scale)), 20%; in assay [3] (125 g ai/ha, postemergence, visual injury vs untreated controls after approx. 10 d, 0 = no effect, 100 = complete control, read-out: Pigweed plant response rating (0 to 100 scale)) it was 70%; in [4] (125 g ai/ha, postemergence, visual injury vs untreated controls after approx. 10 d, 0 = no effect, 100 = complete control, read-out: Barnyardgrass plant response rating (0 to 100 scale)), 80%; in assay [5] (setting [15]), 100%; in assay [6] (setting [15]), 50%. The pest or weed control at 125 g/ha in assay [7] (setting [15]) was 90%; in assay [8] (setting [15]), 70%; in [9] (setting [15]) it was 80%; in [10] (setting [15]) it was 100%. Also, the pest or weed control at 500 g/ha in assay [1] (Postemergence, 500 g ai/ha, visual injury, 0 to 100 scale (0 no effect, 100 complete control), approx. 10 d, read-out: Plant response rating, Foxtail, Giant) stood at 80%; in assay [2] (Postemergence, 500 g ai/ha, visual injury, 0 to 100 scale (0 no effect, 100 complete control), approx. 10 d, read-out: Plant response rating, Ryegrass, Italian), 40%; in [3] (Postemergence, 500 g ai/ha, visual injury, 0 to 100 scale (0 no effect, 100 complete control), approx. 10 d, read-out: Plant response rating, Pigweed), 80%; in [4] (Postemergence, 500 g ai/ha, visual injury, 0 to 100 scale (0 no effect, 100 complete control), approx. 10 d, read-out: Plant response rating, Barnyardgrass), 100%; in [5] (500 g ai/ha), 100%; in [6] (500 g ai/ha), 60%. Also, the pest or weed control at 500 g/ha in assay [7] (500 g ai/ha) worked out at 90%; in [8] (500 g ai/ha), 80%; in assay [9] (500 g ai/ha), 90%; in assay [10] (500 g ai/ha) it was 100%. For the same compound, the pest or weed control at 250 g/ha in assay [11] amounted to 0%; in assay [12], 0%; in assay [13] it was 0%; in [14], 90%.
